{"source": "PubChem BioAssay (NCI)", "experiment_in_all_cases": "DTP human tumour cell line panel, 48 h", "key": {"NCI-H226 lung": {"system": "NCI-H226 lung"}, "SK-MEL-2 melanoma": {"system": "SK-MEL-2 melanoma"}, "UACC-257 melanoma": {"system": "UACC-257 melanoma"}, "SNB-19 CNS": {"system": "SNB-19 CNS"}, "BT-549 breast": {"system": "BT-549 breast"}, "SK-MEL-28 melanoma": {"system": "SK-MEL-28 melanoma"}, "T-47D breast": {"system": "T-47D breast"}, "UO-31 renal": {"system": "UO-31 renal"}, "TK-10 renal": {"system": "TK-10 renal"}, "LOX IMVI melanoma": {"system": "LOX IMVI melanoma"}, "OVCAR-8 ovarian": {"system": "OVCAR-8 ovarian"}, "SF-539 CNS": {"system": "SF-539 CNS"}, "IGROV1 ovarian": {"system": "IGROV1 ovarian"}, "HT29 colon": {"system": "HT29 colon"}, "U251 CNS": {"system": "U251 CNS"}, "MDA-N": {"system": "MDA-N"}, "HOP-62 NSCLC": {"system": "HOP-62 NSCLC"}, "MCF7 breast": {"system": "MCF7 breast"}, "PC-3 prostate": {"system": "PC-3 prostate"}, "UACC-62 melanoma": {"system": "UACC-62 melanoma"}, "SNB-75 CNS": {"system": "SNB-75 CNS"}, "MDA-MB-435": {"system": "MDA-MB-435"}, "MOLT-4 leukemia": {"system": "MOLT-4 leukemia"}, "SW-620 colon": {"system": "SW-620 colon"}, "SN12C renal": {"system": "SN12C renal"}, "OVCAR-5 ovarian": {"system": "OVCAR-5 ovarian"}, "K-562 leukemia": {"system": "K-562 leukemia"}, "A549 NSCLC": {"system": "A549 NSCLC"}, "HS 578T breast": {"system": "HS 578T breast"}, "DU-145 prostate": {"system": "DU-145 prostate"}, "SK-MEL-5 melanoma": {"system": "SK-MEL-5 melanoma"}, "SF-295 CNS": {"system": "SF-295 CNS"}, "HCC-2998 colon": {"system": "HCC-2998 colon"}, "MALME-3M melanoma": {"system": "MALME-3M melanoma"}, "NCI-H522 lung": {"system": "NCI-H522 lung"}, "CAKI-1 renal": {"system": "CAKI-1 renal"}, "NCI/ADR-RES ovarian": {"system": "NCI/ADR-RES ovarian"}, "RXF 393 renal": {"system": "RXF 393 renal"}, "KM12 colon": {"system": "KM12 colon"}, "NCI-H460 lung": {"system": "NCI-H460 lung"}, "EKVX NSCLC": {"system": "EKVX NSCLC"}, "SK-OV-3 ovarian": {"system": "SK-OV-3 ovarian"}, "COLO 205 colon": {"system": "COLO 205 colon"}, "OVCAR-3 ovarian": {"system": "OVCAR-3 ovarian"}, "HCT-15 colon": {"system": "HCT-15 colon"}, "ACHN renal": {"system": "ACHN renal"}, "HOP-92 NSCLC": {"system": "HOP-92 NSCLC"}, "NCI-H23 lung": {"system": "NCI-H23 lung"}, "SF-268 CNS": {"system": "SF-268 CNS"}, "MDA-MB-231 breast": {"system": "MDA-MB-231 breast"}, "A498 renal": {"system": "A498 renal"}}, "note": "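Test compounds were applied to cells in 96-well plates for 48 hours at 5 doses. The concentration for full growth arrest is given as TGI.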", "data": [{"smiles": "N#Cc1c(C#N)c(SSc2c(C#N)c(C#N)c(N)n2-c2ccccc2)n(-c2ccccc2)c1N", "values": [{"measurement": "TGI", "setting": "NCI-H226 lung", "result": 54.3, "unit": "µM"}, {"measurement": "TGI", "setting": "SK-MEL-2 melanoma", "result": 47.7, "unit": "µM"}, {"measurement": "TGI", "setting": "UACC-257 melanoma", "result": "> 69.8", "unit": "µM"}, {"measurement": "TGI", "setting": "SNB-19 CNS", "result": "> 63.1", "unit": "µM"}, {"measurement": "TGI", "setting": "BT-549 breast", "result": 30.7, "unit": "µM"}, {"measurement": "TGI", "setting": "SK-MEL-28 melanoma", "result": 40.9, "unit": "µM"}, {"measurement": "TGI", "setting": "T-47D breast", "result": 5.29, "unit": "µM"}, {"measurement": "TGI", "setting": "UO-31 renal", "result": 3.08, "unit": "µM"}, {"measurement": "TGI", "setting": "TK-10 renal", "result": 3.29, "unit": "µM"}, {"measurement": "TGI", "setting": "LOX IMVI melanoma", "result": "> 100", "unit": "µM"}, {"measurement": "TGI", "setting": "OVCAR-8 ovarian", "result": "> 100", "unit": "µM"}, {"measurement": "TGI", "setting": "SF-539 CNS", "result": "> 100", "unit": "µM"}, {"measurement": "TGI", "setting": "IGROV1 ovarian", "result": "> 60.5", "unit": "µM"}, {"measurement": "TGI", "setting": "HT29 colon", "result": "> 59.1", "unit": "µM"}, {"measurement": "TGI", "setting": "U251 CNS", "result": 42.4, "unit": "µM"}, {"measurement": "TGI", "setting": "MDA-N", "result": "> 56.7", "unit": "µM"}, {"measurement": "TGI", "setting": "HOP-62 NSCLC", "result": "> 69.1", "unit": "µM"}, {"measurement": "TGI", "setting": "MCF7 breast", "result": 5.84, "unit": "µM"}, {"measurement": "TGI", "setting": "PC-3 prostate", "result": 46.1, "unit": "µM"}, {"measurement": "TGI", "setting": "UACC-62 melanoma", "result": 46.4, "unit": "µM"}, {"measurement": "TGI", "setting": "SNB-75 CNS", "result": "> 70", "unit": "µM"}, {"measurement": "TGI", "setting": "MDA-MB-435", "result": 29.2, "unit": "µM"}, {"measurement": "TGI", "setting": "MOLT-4 leukemia", "result": "> 100", "unit": "µM"}, {"measurement": "TGI", "setting": "SW-620 colon", "result": 3.43, "unit": "µM"}, {"measurement": "TGI", "setting": "SN12C renal", "result": 38.3, "unit": "µM"}, {"measurement": "TGI", "setting": "OVCAR-5 ovarian", "result": "> 62.5", "unit": "µM"}, {"measurement": "TGI", "setting": "K-562 leukemia", "result": "> 100", "unit": "µM"}, {"measurement": "TGI", "setting": "A549 NSCLC", "result": "> 57.2", "unit": "µM"}, {"measurement": "TGI", "setting": "HS 578T breast", "result": 55.2, "unit": "µM"}, {"measurement": "TGI", "setting": "DU-145 prostate", "result": 39, "unit": "µM"}, {"measurement": "TGI", "setting": "SK-MEL-5 melanoma", "result": 31.9, "unit": "µM"}, {"measurement": "TGI", "setting": "SF-295 CNS", "result": "> 58.6", "unit": "µM"}, {"measurement": "TGI", "setting": "HCC-2998 colon", "result": 51, "unit": "µM"}, {"measurement": "TGI", "setting": "MALME-3M melanoma", "result": 3.26, "unit": "µM"}, {"measurement": "TGI", "setting": "NCI-H522 lung", "result": "> 100", "unit": "µM"}, {"measurement": "TGI", "setting": "CAKI-1 renal", "result": 2.99, "unit": "µM"}, {"measurement": "TGI", "setting": "NCI/ADR-RES ovarian", "result": "> 71.4", "unit": "µM"}, {"measurement": "TGI", "setting": "RXF 393 renal", "result": 44.7, "unit": "µM"}, {"measurement": "TGI", "setting": "KM12 colon", "result": "> 63.3", "unit": "µM"}, {"measurement": "TGI", "setting": "NCI-H460 lung", "result": "> 89.3", "unit": "µM"}, {"measurement": "TGI", "setting": "EKVX NSCLC", "result": 59.5, "unit": "µM"}, {"measurement": "TGI", "setting": "SK-OV-3 ovarian", "result": 37.5, "unit": "µM"}, {"measurement": "TGI", "setting": "COLO 205 colon", "result": 3.82, "unit": "µM"}, {"measurement": "TGI", "setting": "OVCAR-3 ovarian", "result": 45.2, "unit": "µM"}, {"measurement": "TGI", "setting": "HCT-15 colon", "result": "> 24.4", "unit": "µM"}, {"measurement": "TGI", "setting": "ACHN renal", "result": 21.4, "unit": "µM"}, {"measurement": "TGI", "setting": "HOP-92 NSCLC", "result": 3.71, "unit": "µM"}, {"measurement": "TGI", "setting": "NCI-H23 lung", "result": "> 61", "unit": "µM"}, {"measurement": "TGI", "setting": "SF-268 CNS", "result": "> 72", "unit": "µM"}, {"measurement": "TGI", "setting": "MDA-MB-231 breast", "result": "> 69.6", "unit": "µM"}, {"measurement": "TGI", "setting": "A498 renal", "result": 44.1, "unit": "µM"}]}]}
